{"source": "patent US10201507B2", "about": "“Modulators of intracellular chloride concentration for treating fragile X syndrome” (NEUROCHLORE, priority 2012, dated 2019)", "key": {"[1]": {"tested_on": "hippocampal CA3 pyramidal neurons", "test": "Whole-cell recordings of spontaneous excitatory postsynaptic currents (sEPSCs) at P15 after maternal pretreatment", "format": "in vivo, mouse", "details": "FXS offspring P15, maternal pretreatment, −70 mV", "experimental": "Standard whole-cell recordings were performed in coronal neocortical rat or mouse brain slices at room temperature (20-22° C.) from the soma of hippocampal CA3 neurons using an EPC-10 (HEKA Elektronik, Germany) amplifier and filtered at 3-10 kHz. The internal solution contained (in mM): 130 K-gluconate, 10 Na-gluconate, 4 NaCl, 4 MgATP, 4 phosphocreatine, 10 HEPES, and 0.3 GTP (pH 7.3 with KOH). Biocytin (final concentration 0.3-0.5%) was added to the pipette solution to label the neurons from which recordings were obtained. Neurons were visualized by using infrared DIC video microscopy. Spontaneous postsynaptic currents were recorded for […] at the reversal potentials for GABAergic currents (-70 mV). […] Stored data were analyzed using the Mini Analysis 6.0.3 (Synaptosoft Inc., […].) and Origin (MicroCal, Northampton, Mass.) software. […] Data are expressed as mean±S.E.M. To test whether depolarizing actions of GABA were associated with neuronal excitation, the effect of the GABAA receptor agonist isoguvacine was tested. […] To test whether maternal treatment with bumetanide before delivery switches the action of GABA from excitatory to inhibitory in offsprings at P15, pregnant females were treated orally 1 day before delivery with bumetanide (2-2.5 mg/kg in drinking water) and juvenile offspring neurons recorded at P15. […]"}, "hippocampal slices": {"tested_on": "hippocampal slices", "test": "Extracellular field potentials / spike frequency in hippocampal slices at P15 on isoguvacine", "format": "cell-based, mouse", "description": "Recording were made in the hippocampal slices using tungsten wire electrodes (diameter: 50 μm, California Fine Wire, Grover Beach, Calif.) and a low-noise multichannel DAM-8A amplifiers (WPI, GB; […]; gain: ×1000). The signals were digitized using an analogue-to-digital converter (Digidata 1440A, Axon Instruments, USA). pCLAMP 10.1, Clampfit 10.1 (Axon Instruments, USA), MiniAnalysis 6.03 (Synaptosoft, Decatur, Calif.) and Origin 7.5 (Microcal Software, USA) programs were used for the acquisition and analysis of the synaptic activities. Sampling interval per signal was 100 microseconds (10 kHz).\nTo test whether depolarizing actions of GABA were associated with neuronal excitation, the effect of the GABAA receptor agonist isoguvacine was tested. […] To test whether maternal treatment with bumetanide before delivery switches the action of GABA from excitatory to inhibitory in offsprings at P15, pregnant females were treated orally 1 day before delivery with bumetanide (2-2.5 mg/kg in drinking water) and juvenile offspring neurons recorded at P15. […] Therefore, excitatory actions of GABA during delivery produce long term deleterious effects on electrophysiological parameters of FXS juvenile neurons. In FXS mice, GABAergic inputs are excitatory and contribute to hyperexcitability of the network. Bumetanide decreases [Cl^−]i and consequently reduces contribution of excitatory GABAergic inputs in the overall network activity."}, "[2]": {"tested_on": "child with Fragile X syndrome", "test": "Clinical case study, side effects, blood tests, blood ions and weight", "format": "in vivo, human", "experimental": "This example is a case reports presenting the treatment by bumetanide of a child with Fragile X syndrome.\nStarting from the 5 Jan. 2011, the child received bumetanide twice a day (0.5 mg morning and 0.5 mg evening) during three months. Several biological tests were made at baseline (D0) and then after 7 days (D7), one month (M1), two months (M2) and three months (M3) of treatment. They checked orthostatic hypotension, allergy, cramps, asthenia, diarrhea, myalgia, arthralgia, vertigo and nausea. Blood tests included γ-glutamyltransferase, transaminases, alkaline phosphatases, glycemia, uric acid and creatine, in addition to blood Na^+ and K^+."}, "[3]": {"tested_on": "hippocampal CA3 pyramidal neurons", "test": "DFGABA in offspring at P15 after maternal pretreatment", "format": "in vivo, mouse", "experimental": "Mice lacking Fmr1 (referred to as Fmr1^−/−) were bred in our animal facility. […] For all experiments, Fmr1^−/− mice were used with wild-type littermates as a control group. The offspring were used for experiments at E18, P0, P2, P4, P7, P9, P15 and P30. Experiments were carried out on offspring of either sex and in a blind manner at E18 and P0. Hippocampal slices (300-500 μm thick) were prepared using a Microm tissue slicer (International GmbH, Germany) as described previously (Tyzio et al., 2006, 2008). Slices were kept in oxygenated (95% O2/5% CO2) artificial cerebrospinal fluid (ACSF) of the following composition (in mM): […] For recordings, slices were placed into a conventional fully submerged chamber superfused with ACSF at a rate of 2-3 ml/min at room temperature. Patch clamp recordings from visually identified CA3 pyramidal cells in cell-attached configuration were performed using EPC-10 amplifier (HEKA Elektronik Dr. Schulze GmbH, Lambrecht/Pfalz, Germany). Patch pipette solution for recordings of single GABAA channels contained (in mM): NaCl 120, KCl 5, TEA-Cl 20, 4-aminopyridine 5, CaCl2 0.1, MgCl2 10, glucose 10, Hepes-NaOH 10 buffered to pH 7.2-7.3 and GABA 2 μM. Analysis of currents through single channels and current-voltage relationships were performed using Clampfit 9.2 (Axon Instruments, Union City, Calif.). […]"}}, "data": [{"smiles": "CCCCNc1cc(C(=O)O)cc(S(N)(=O)=O)c1Oc1ccccc1", "note": "[bumetanide]", "values": [{"measurement": "ongoing activity and frequency of glutamatergic sEPSCs (in words)", "setting": "[1]", "result": "significantly reduced"}, {"measurement": "normalized spike frequency", "setting": "hippocampal slices; FXS mice pretreated with bumetanide, P15, on isoguvacine (10 μM)", "result": "80.8±8.2", "unit": "%"}, {"measurement": "Effect on excitatory actions of isoguvacine (in words)", "setting": "hippocampal slices; FXS offspring P15, maternal pretreatment", "result": "suppressed the excitatory actions"}, {"measurement": "Weight", "setting": "[2]; 1 month (M1) of treatment", "result": 25.1, "unit": "kg"}, {"measurement": "blood K^+", "setting": "[2]; 1 month (M1) of treatment", "result": 4.3, "unit": "mmol/L"}, {"measurement": "blood Na^+", "setting": "[2]; 1 month (M1) of treatment", "result": 139, "unit": "mmol/L"}, {"measurement": "Weight", "setting": "[2]; 2 months (M2) of treatment", "result": 25.4, "unit": "kg"}, {"measurement": "blood K^+", "setting": "[2]; 2 months (M2) of treatment", "result": 3.5, "unit": "mmol/L"}, {"measurement": "blood Na^+", "setting": "[2]; 2 months (M2) of treatment", "result": 140, "unit": "mmol/L"}, {"measurement": "Weight", "setting": "[2]; 3 months (M3) of treatment", "result": 25.7, "unit": "kg"}, {"measurement": "blood K^+", "setting": "[2]; 3 months (M3) of treatment", "result": 3.6, "unit": "mmol/L"}, {"measurement": "blood Na^+", "setting": "[2]; 3 months (M3) of treatment", "result": 139, "unit": "mmol/L"}, {"measurement": "Natremia (in words)", "setting": "[2]; 3 months of treatment", "result": "unaltered"}, {"measurement": "body weight (in words)", "setting": "[2]; 3 months of treatment", "result": "not altered"}, {"measurement": "blood K^+ (in words)", "setting": "[2]; 3 months of treatment, inferior limit 3.5 mmol/1", "result": "reduced to a value close to the inferior limit"}, {"measurement": "Weight", "setting": "[2]; 7 days (D7) of treatment", "result": 25.2, "unit": "kg"}, {"measurement": "blood K^+", "setting": "[2]; 7 days (D7) of treatment", "result": 3.6, "unit": "mmol/L"}, {"measurement": "blood Na^+", "setting": "[2]; 7 days (D7) of treatment", "result": 143, "unit": "mmol/L"}, {"measurement": "side effect in clinical examination", "setting": "[2]; orthostatic hypotension, allergy, cramps, asthenia, diarrhea, myalgia, arthralgia, vertigo, nausea, 3 months", "result": "no side effect"}, {"measurement": "Conventional blood tests", "setting": "[2]; γ-glutamyltransferase, transaminases, alkaline phosphatases, glycemia, uric acid, creatine, 3 months", "result": "unaffected"}, {"measurement": "average DFGABA", "setting": "[3]; P15 FXS mice, maternal pretreatment orally 1 day before delivery, 2-2.5 mg/kg in drinking water", "result": "1.0±1.1", "unit": "mV"}, {"measurement": "Effect on DFGABA in offsprings (in words)", "setting": "[3]; P15 FXS, maternal pretreatment", "result": "restored control DFGABA values"}]}]}
